According to patent publication US9624241B2 (Incyte Corporation, priority 2013, dated 2017):
Counter-ions that a name gives are not always drawn. Like-named read-outs stand apart in the source and are kept apart here.

Tests used:
BRD4-BD2 = BRD4-BD2 (Homo sapiens (Human), UniProt O60885); assay: BRD4 AlphaScreen Assay (Example A2), BRD4-BD2; type: binding; conditions: read-out: BRD4 BD-2 enzyme IC50
Protocol: (§1) BRD4-BD1 and BRD4-BD2 assays were conducted in white 384-well polystyrene plate in a final volume of 40 μL for BD1 and 60 μL for BD2. Inhibitors were first serially diluted in DMSO and added to the plate wells before the addition of other reaction components. […] The assays were carried out at room temperature in the assay buffer (50 mM Tris-HCl, pH 7.5, 0.01% Tween-20, 0.01% BSA, 5 mM DTT), containing 50 nM Biotin-labeled tetra-acetylated histone H4 peptide (H4Ac4) and BRD4-BD1 or BRD4-BD2 protein at concentration less than 1 nM. […] After plate sealing, the plate was incubated in the dark at room temperature for 75 min. before reading on a PHERAstar FS plate reader (BMG Labtech). IC50 determination was performed by fitting the curve of percent control activity versus the log of the inhibitor concentration using the GraphPad Prism 5.0 software.

BRD4-BD1 = BRD4-BD1 (Homo sapiens (Human), UniProt O60885); assay: BRD4 AlphaScreen Assay (Example A2), BRD4-BD1; type: binding; conditions: Assay A2, AlphaScreen, BRD4-BD1; read-out: BRD4 BD-1 enzyme IC50
Protocol: as §1

[1] = Assay A2, AlphaScreen, BRD4-BD2

Structure (SMILES)	IC50 (BRD4-BD2; [1])	IC50 (BRD4-BD1)	IC50 (BRD4-BD2)
Cc1noc(C)c1-c1ccc2nc(N3CCCN(S(C)(=O)=O)CC3)n3c2c1OC[C@@H]3c1ccccn1 [Example 149, (4S)-7-(3,5-Dimethylisoxazol-4-yl)-2-[4-(methylsulfonyl)-1,4-diazepan-1-yl]-4-pyridin-2-yl-4,5-dihydroimidazo[1,5,4-de][1,4]benzoxazine]	< 100 nM	< 100 nM	–
Cc1noc(C)c1-c1ccc2nc(C(=O)OC(C)(C)C)n3c2c1OC[C@@H]3c1ccccn1 [Example 93, tert-Butyl (4S)-7-(3,5-dimethylisoxazol-4-yl)-4-pyridin-2-yl-4,5-dihydroimidazo[1,5,4-de][1,4]benzoxazine-2-carboxylate]	< 100 nM	< 100 nM	–
CC(=O)N1CCCC(c2nc3ccc(-c4c(C)noc4C)c4c3n2[C@@H](c2ccccn2)CO4)C1 (mixture of isomers) [Example 117, (4S)-2-(1-acetylpiperidin-3-yl)-7-(3,5-dimethylisoxazol-4-yl)-4-pyridin-2-yl-4,5-dihydroimidazo[1,5,4-de][1,4]benzoxazine (mixture of diastereomers)]	< 100 nM	< 100 nM	–
Cc1noc(C)c1-c1cc(C(C)O)c2[nH]c(=O)n3c2c1OC[C@@H]3c1ccccn1 (single isomer, unassigned) [Example 144A]	< 100 nM	100 to 1000 nM	–
COn1c(=O)n2c3c(c(-c4c(C)noc4C)ccc31)CCC2c1ccccn1 (stereo not drawn) [Example 122, 7-(3,5-Dimethylisoxazol-4-yl)-1-methoxy-4-pyridin-2-yl-5,6-dihydro-4H-imidazo[4,5,1-ij]quinolin-2(1H)-one trifluoroacetate]	< 100 nM	100 to 1000 nM	–
Cc1noc(C)c1-c1cc(-c2ccc(C(=O)N(C)C)nc2)c2[nH]c(=O)n3c2c1OC[C@@H]3c1ccccn1 [Example 82, 5-[(4S)-7-(3,5-dimethylisoxazol-4-yl)-2-oxo-4-pyridin-2-yl-1,2,4,5-tetrahydroimidazo[1,5,4-de][1,4]benzoxazin-9-yl]-N,N-dimethylpyridine-2-carboxamide 2,2,2-bis(trifluoroacetate)]	< 100 nM	100 to 1000 nM	–
Cc1noc(C)c1-c1ccc2nc(C3CCNC3)n3c2c1OC[C@@H]3c1ccccn1 (single isomer, unassigned; diastereomer 1) [Example 106A]	< 100 nM	< 100 nM	–
Cc1noc(C)c1-c1ccc2nc(C3CCN(C(=O)OC(C)(C)C)C3)n3c2c1OC[C@@H]3c1ccccn1 (single isomer, unassigned; diastereoisomer 2) [Example 101B]	< 100 nM	< 100 nM	–
Cc1noc(C)c1-c1ccc2[nH]c(=O)n3c2c1OCC3C1CCCCN1C(=O)NC(C)C (stereo not drawn) [Example 80, 2-[7-(3,5-dimethylisoxazol-4-yl)-2-oxo-1,2,4,5-tetrahydroimidazo[1,5,4-de][1,4]benzoxazin-4-yl]-N-isopropylpiperidine-1-carboxamide]	1000 to 10000 nM	1000 to 10000 nM	–
Cc1noc(C)c1-c1ccc2nc(C3CCN(C(=O)OC(C)(C)C)CC3)n3c2c1OC[C@@H]3c1ccccn1 [Example 100, tert-Butyl 4-[(4S)-7-(3,5-dimethylisoxazol-4-yl)-4-pyridin-2-yl-4,5-dihydroimidazo[1,5,4-de][1,4]benzoxazin-2-yl]piperidine-1-carboxylate]	< 100 nM	< 100 nM	–
Cc1noc(C)c1-c1ccc2nc(N(C)CCO)n3c2c1OCC3c1ccccn1 (stereo not drawn) [Example 185, 2-[[7-(3,5-dimethylisoxazol-4-yl)-4-pyridin-2-yl-4,5-dihydroimidazo[1,5,4-de][1,4]benzoxazin-2-yl](methyl)amino]ethanol]	–	100 to 1000 nM	< 100 nM
Cc1noc(C)c1-c1cc(-c2cccnc2)c2[nH]c(=O)n3c2c1OCC3c1ccccc1 (stereo not drawn) [Example 52, 7-(3,5-Dimethylisoxazol-4-yl)-4-phenyl-9-pyridin-3-yl-4,5-dihydroimidazo[1,5,4-de][1,4]benzoxazin-2(1H)-one]	< 100 nM	< 100 nM	–
